According to ChEMBL document CHEMBL4342522 (J Med Chem, 2020):

How the values were obtained:
[1] = Permeability in dog MDCK cells by PAMPA; type: ADME, cell-based, Canis lupus familiaris; details: read-out: permeability
[2] = biological target: T1, Bromodomain-containing protein 4 (Homo sapiens, UniProt O60885); assay: Inhibition of human N-terminal His6 tagged BRD4 BD2 (352 to 457) residues expressed in Escherichia coli BL21(DE3) cells after 1 hr by TR-FRET assay
[3] = Unbound hepatic clearance in mouse liver microsomes; type: ADME, Microsome
NCI-H1299 = assay: Antiproliferative activity against human H1299 cells assessed as reduction in cell viability after 5 days by CellTiter-Glo assay; type: functional, cell-based; details: NCI-H1299, 120 h
[4] = Unbound hepatic clearance in rat liver microsomes; type: ADME, Microsome
SKM-1 = assay: Antiproliferative activity against human SKM1 cells assessed as reduction in cell viability after 5 days by CellTiter-Glo assay; type: functional, cell-based; details: SKM-1, 120 h
[5] = Unbound hepatic clearance in human liver microsomes; type: ADME, Microsome
[6] = biological target: T1, Bromodomain-containing protein 4; assay: biochemical; type: cell-based
Description: Inhibition of human N-terminal His6 tagged BRD4 BD1 (57 to 168) residues expressed in Escherichia coli BL21(DE3) cells after 1 hr by TR-FRET assay

| Structure (SMILES) | Papp [1] [×10⁻⁶ cm/s] | Ki [2] [nM] | CL free [3] [mL/min/kg] | IC50 (NCI-H1299) [nM] | CL free [4] [mL/min/kg] | IC50 (SKM-1) [nM] | CL free [5] [mL/min/kg] | Ki [6] [nM] |
| --- | --- | --- | --- | --- | --- | --- | --- | --- |
| CCNC(=O)c1cc2c(-c3cc(S(=O)(=O)CC)ccc3Oc3c(C)cc(Cl)cc3C)cn(C)c(=O)c2[nH]1 | 1.46 | 0.8 | 2000 | 700 | 1580 | 110 | 783 | 82 |
| CCNC(=O)c1cc2c(-c3cc(S(=O)(=O)CC)ccc3Oc3ccccc3Cl)cn(C)c(=O)c2[nH]1 | 13.8 | 0.5 | 1200 | 340 | 1200 | 3.3 | 200 | 6.5 |
| CCNC(=O)c1cc2c(-c3cc(NC(C)=O)ccc3Oc3c(C)cccc3C)cn(C)c(=O)c2[nH]1 | 1.96 | 0.5 | 2000 | 730 | 667 | 3.5 | 83.3 | 76 |

Continued by falling Ki [2], values first:

| Papp [1] [×10⁻⁶ cm/s] | Ki [2] [nM] | CL free [3] [mL/min/kg] | IC50 (NCI-H1299) [nM] | CL free [4] [mL/min/kg] | IC50 (SKM-1) [nM] | CL free [5] [mL/min/kg] | Ki [6] [nM] | Structure (SMILES) |
| --- | --- | --- | --- | --- | --- | --- | --- | --- |
| 0.76 | 2 | 3500 | 2900 | 1400 | 66 | 1120 | 780 | Cc1cc(F)cc(C)c1Oc1ccc(C(C)(C)O)cc1-c1cn(C)c(=O)c2[nH]c(C(=O)NC3(C)CC3(F)F)cc12 (centres undefined) |
| 1.56 | 1.5 | 15700 | 2200 | 6330 | 26 | 5830 | 220 | CCNC(=O)c1cc2c(-c3cc(C4(O)CCC4)ccc3Oc3c(C)cc(F)cc3C)cn(C)c(=O)c2[nH]1 |
| 10.3 | 1.1 | 750 | 2600 | 350 | 9.5 | 112 | 180 | CCNC(=O)c1cc2c(-c3cc(S(=O)(=O)CC)ccc3-c3ccccc3C)cn(C)c(=O)c2[nH]1 |
| 3.5 | 0.9 | 517 | 3900 | 233 | 34 | 140 | 170 | CCNC(=O)c1cc2c(-c3cc(S(=O)(=O)CC)ccc3-c3cccc4cc[nH]c34)cn(C)c(=O)c2[nH]1 |
| 3.1 | 0.7 | 1600 | 94 | 1620 | 2.6 | 533 | 8.3 | CCNC(=O)c1cc2c(-c3cc(S(=O)(=O)CC)ccc3Oc3cc(C)cc(C)c3)cn(C)c(=O)c2[nH]1 |
